Data taken from patent publication US8134015B2, “Compound inhibiting in vivo phosphorous transport and medicine containing the same” (Kyowa Hakko Kirin Co., Ltd., priority 2003, dated 2012).
pIC50: −log10 of the molar value.

What was measured:
rat NaPi-2b = target: T1, rat NaPi-2b (Rattus norvegicus, UniProt Q9JJ09); assay: Sodium-dependent phosphate uptake of Xenopus oocytes which expressed NaPi-2b (32P); assay type: cell-based; conditions: Xenopus oocytes expressing rat NaPi-2b, 32P radioactive phosphorus; read-out: IC50 (phosphate uptake inhibitory activity)
T1 construct: expressed in transfected cells; host or cells: Xenopus oocytes injected with cRNA
T1 sequence (Q9JJ09 1-695): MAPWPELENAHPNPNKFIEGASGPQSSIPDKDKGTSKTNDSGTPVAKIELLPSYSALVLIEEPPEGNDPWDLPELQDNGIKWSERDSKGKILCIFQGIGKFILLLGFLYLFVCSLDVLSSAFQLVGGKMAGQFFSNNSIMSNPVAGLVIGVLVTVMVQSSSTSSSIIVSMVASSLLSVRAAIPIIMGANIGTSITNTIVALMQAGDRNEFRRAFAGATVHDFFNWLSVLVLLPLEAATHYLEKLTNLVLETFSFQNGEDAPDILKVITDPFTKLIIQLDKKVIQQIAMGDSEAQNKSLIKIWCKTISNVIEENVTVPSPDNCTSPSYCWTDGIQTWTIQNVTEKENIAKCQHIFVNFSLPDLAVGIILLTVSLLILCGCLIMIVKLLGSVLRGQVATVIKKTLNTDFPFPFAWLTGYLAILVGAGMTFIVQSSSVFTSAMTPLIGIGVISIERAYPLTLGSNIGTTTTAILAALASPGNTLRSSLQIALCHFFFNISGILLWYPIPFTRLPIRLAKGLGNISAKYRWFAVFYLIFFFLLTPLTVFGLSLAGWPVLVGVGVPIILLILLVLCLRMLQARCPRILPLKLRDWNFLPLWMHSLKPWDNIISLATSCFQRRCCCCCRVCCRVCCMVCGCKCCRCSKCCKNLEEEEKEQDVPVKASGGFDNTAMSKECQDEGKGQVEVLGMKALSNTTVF
Outline: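 Read-out is 32P phosphate uptake into Xenopus oocytes expressing rat intestinal NaPi-2b (cRNA injection, 2-day culture). Inhibition at 300 μM and 100 μM was derived from a single inhibition curve and given as percent.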

human NaPi-2a = target: T2, human NaPi-2a (Homo sapiens, UniProt Q06495); assay: Sodium-dependent phosphate uptake of Xenopus oocytes which expressed NaPi-2a (32P); assay type: cell-based; conditions: phosphate uptake, Xenopus oocytes expressing human NaPi-2a; five concentration levels
T2 construct: expressed in transfected cells
T2 sequence (Q06495 1-639): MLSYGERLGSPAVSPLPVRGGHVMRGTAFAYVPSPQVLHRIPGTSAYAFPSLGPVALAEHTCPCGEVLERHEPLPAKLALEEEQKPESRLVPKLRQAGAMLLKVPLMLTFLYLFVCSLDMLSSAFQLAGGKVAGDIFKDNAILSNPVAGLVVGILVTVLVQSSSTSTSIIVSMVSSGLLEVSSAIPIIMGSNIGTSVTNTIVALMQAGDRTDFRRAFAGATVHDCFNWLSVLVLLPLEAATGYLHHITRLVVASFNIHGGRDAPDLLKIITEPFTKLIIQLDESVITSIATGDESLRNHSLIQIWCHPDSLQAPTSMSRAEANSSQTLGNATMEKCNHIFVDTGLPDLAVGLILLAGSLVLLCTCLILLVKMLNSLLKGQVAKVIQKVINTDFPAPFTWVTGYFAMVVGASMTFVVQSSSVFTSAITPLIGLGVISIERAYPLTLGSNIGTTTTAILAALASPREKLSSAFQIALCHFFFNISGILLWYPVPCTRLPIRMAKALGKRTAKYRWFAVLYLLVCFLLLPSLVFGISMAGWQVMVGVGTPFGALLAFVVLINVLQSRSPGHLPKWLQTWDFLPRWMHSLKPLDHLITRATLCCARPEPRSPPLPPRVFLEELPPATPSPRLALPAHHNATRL
Excerpt: Experiment of Sodium-Dependent Phosphate Uptake of Xenopus oocytes which Expressed NaPi-2a
In the test, a group with the addition of choline chloride (Choline Cl) was used as a negative control for nonspecific uptake, and PFA (phosphonoformic acid) was used as a positive control for phosphate transport inhibition.

pIC50 (rat NaPi-2b) | pIC50 (human NaPi-2a) | Structure (SMILES)
5.25 | 4.52 | COc1ccc(C(=O)Nc2ccc(N3CCCCC3)cc2C(=O)N/N=C/c2cccnc2)cc1OC [Compound 936, 3,4-Dimethoxy-N-[4-piperidin-1-yl-2-(pyridin-3-ylmethylene-hydrazinocarbonyl)-phenyl]-benzamide]
6.02 | 4.44 | O=C(Nc1ccc(N2CCCCC2)cc1C(=O)N/N=C/c1ccc(Cl)c(C(F)(F)F)c1)c1cccc(CSCCO)c1 [Compound 884, N-[2-(4-Chloro-3-trifluoromethyl-benzylidene-hydrazinocarbonyl)-4-piperidin-1-yl-phenyl]-3-(2-hydroxy-ethylsulfanylmethyl)-benzamide]
5.41 | 5.28 | O=C(Nc1sc2c(c1C(=O)N/N=C/c1cccc(F)c1)CCCC2)c1cccc(CN2CCC(O)CC2)c1 [Compound 636, N-[3-(3-Fluoro-benzylidene-hydrazinocarbonyl)-4,5,6,7-tetrahydro-benzo[b]thiophen-2-yl]-3-(4-hydroxy-piperidin-1-ylmethyl)-benzamide]
> 6.00 | 5.60 | Cc1ccc(/C=N/NC(=O)c2cc(N3CCCCC3)ccc2NC(=O)c2cccc(CSCC(O)CO)c2)cc1 (stereo not shown) [Compound 900, 3-(2,3-Dihydroxy-propylsulfanylmethyl)-N-[2-(4-methyl-benzylidene-hydrazinocarbonyl)-4-piperidin-1-yl-phenyl]-benzamide]
5.03 | 5.00 | O=C(Nc1sc2ccccc2c1C(=O)N/N=C/c1ccc(F)cc1)c1cccc(CN2CCC(CO)CC2)c1 [Compound 800, N-[3-(4-Fluoro-benzylidene-hydrazinocarbonyl)-benzo[b]thiophen-2-yl]-3-(4-hydroxymethyl-piperidin-1-ylmethyl)-benzamide]
6.74 | 5.57 | Cc1ccc(/C=N/NC(=O)c2cc(N3CCCCC3)ccc2NC(=O)c2cccc(CSCCO)c2)cc1 [Compound 881, 3-(2-Hydroxy-ethylsulfanylmethyl)-N-[2-(4-methyl-benzylidene-hydrazinocarbonyl)-4-piperidin-1-yl-phenyl]-benzamide]
5.50 | 5.37 | COc1ccc(/C=N/NC(=O)c2c(NC(=O)c3cccc(CN4CCC(O)CC4)c3)sc3c2CCCC3)cc1 [Compound 638, 3-(4-Hydroxy-piperidin-1-ylmethyl)-N-[3-(4-methoxy-benzylidene-hydrazinocarbonyl)-4,5,6,7-tetrahydro-benzo[b]thiophen-2-yl]-benzamide]
5.23 | 4.74 | Cc1ccc(/C=N/NC(=O)c2c(C)csc2NC(=O)c2cccc(CN(C)C)c2)cc1C [Compound 822, 3-Dimethylaminomethyl-N-[3-(3,4-dimethyl-benzylidene-hydrazinocarbonyl)-4-methyl-thiophen-2-yl]-benzamide]
5.46 | 4.61 | Cc1ccc(/C=N/NC(=O)c2c(C)csc2NC(=O)c2cccc(CN3CCN(c4ncccn4)CC3)c2)cc1 [Compound 827, N-[4-Methyl-3-(4-methyl-benzylidene-hydrazinocarbonyl)-thiophen-2-yl]-3-(4-pyrimidin-2-yl-piperazin-1-ylmethyl)-benzamide]
6.13 | 5.71 | Cc1ccc(/C=N/NC(=O)c2cc(N3CCCCC3)ccc2NC(=O)c2cccc(CN3CCN(CCO)CC3)c2)cc1C [Compound 864, N-[2-(3,4-Dimethyl-benzylidene-hydrazinocarbonyl)-4-piperidin-1-yl-phenyl]-3-[4-(2-hydroxy-ethyl)-piperazin-1-ylmethyl]-benzamide]
6.77 | 5.01 | COc1ccc(C(=O)Nc2ccc(N3CCCCC3)cc2C(=O)N/N=C/c2ccc(C)c(C)c2)cc1OC [Compound 935, N-[2-(3,4-Dimethyl-benzylidene-hydrazinocarbonyl)-4-piperidin-1-yl-phenyl]-3,4-dimethoxy-benzamide]
5.92 | 5.80 | CCN(CC)CCN(C)Cc1cccc(C(=O)Nc2ccc(OCCOC)cc2C(=O)N/N=C/c2ccc(Cl)c(C(F)(F)F)c2)c1 [Compound 1027, N-[2-(4-Chloro-3-trifluoromethyl-benzylidene-hydrazinocarbonyl)-4-(2-methoxy-ethoxy)-phenyl]-3-{[(2-diethylamino-ethyl)-methyl-amino]-methyl}-benzamide]
> 6.00 | > 6.00 | O=C(Nc1ccc(N2CCCCC2)cc1C(=O)N/N=C/c1ccc(F)cc1)c1cccc(CSCC(O)CO)c1 (stereo not shown) [Compound 901, 3-(2,3-Dihydroxy-propylsulfanylmethyl)-N-[2-(4-fluoro-benzylidene-hydrazinocarbonyl)-4-piperidin-1-yl-phenyl]-benzamide]
7.10 | 5.89 | Cc1ccc(/C=N/NC(=O)c2cc(N3CCCCC3)ccc2NC(=O)c2cccc(CSCCO)c2)cc1C [Compound 880, N-[2-(3,4-Dimethyl-benzylidene-hydrazinocarbonyl)-4-piperidin-1-yl-phenyl]-3-(2-hydroxy-ethylsulfanylmethyl)-benzamide]
5.49 | 5.09 | Cc1csc(NC(=O)c2cccc(CN(C)C)c2)c1C(=O)N/N=C/c1ccc(Cl)c(C(F)(F)F)c1 [Compound 824, N-[3-(4-Chloro-3-trifluoromethyl-benzylidene-hydrazinocarbonyl)-4-methyl-thiophen-2-yl]-3-dimethylaminomethyl-benzamide]
5.41 | 4.92 | CC(O)CN(Cc1cccc(C(=O)Nc2sc3c(c2C(=O)N/N=C/c2cccc(F)c2)CCC3)c1)CC(C)O (stereo not shown) [Compound 806, 3-{[Bis-(2-hydroxy-propyl)-amino]-methyl}-N-[3-(3-fluoro-benzylidene-hydrazinocarbonyl)-5,6-dihydro-4H-cyclopenta[b]thiophen-2-yl]-benzamide]
> 6.00 | 6.02 | O=C(Nc1sc2c(c1C(=O)N/N=C/c1ccc(Cl)c(C(F)(F)F)c1)CCCC2)c1cccc(CN2CCC(O)CC2)c1 [Compound 637, N-[3-(4-Chloro-3-trifluoromethyl-benzylidene-hydrazinocarbonyl)-4,5,6,7-tetrahydro-benzo[b]thiophen-2-yl]-3-(4-hydroxy-piperidin-1-ylmethyl)-benzamide]
5.41 | 4.54 | COc1ccc(/C=N/NC(=O)c2c(C)csc2NC(=O)c2cccc(CN3CCN(c4ncccn4)CC3)c2)cc1 [Compound 831, N-[3-(4-Methoxy-benzylidene-hydrazinocarbonyl)-4-methyl-thiophen-2-yl]-3-(4-pyrimidin-2-yl-piperazin-1-ylmethyl)-benzamide]
> 6.00 | 5.61 | CC(O)CN(Cc1cccc(C(=O)Nc2sc3c(c2C(=O)N/N=C/c2ccc(Cl)c(C(F)(F)F)c2)CCCC3)c1)CC(C)O (stereo not shown) [Compound 631, 3-{[Bis-(2-hydroxy-propyl)-amino]-methyl}-N-[3-(4-chloro-3-trifluoromethyl-benzylidene-hydrazinocarbonyl)-4,5,6,7-tetrahydro-benzo[b]thiophen-2-yl]-benzamide]
5.69 | 5.18 | Cc1csc(NC(=O)c2cccc(CN(CCO)CCO)c2)c1C(=O)N/N=C/c1ccc(F)cc1 [Compound 788, 3-{[Bis-(2-hydroxy-ethyl)-amino]-methyl}-N-[3-(4-fluoro-benzylidene-hydrazinocarbonyl)-4-methyl-thiophen-2-yl]-benzamide]
